The term melting point denotes the temperature of the solid-liquid transition.

The record followed here is a melting point compilation (Tetko et al.; mined from patent text by program, amines drawn as free bases though some values may be those of a salt).

`O=C(O)c1[nH]c(-c2ccoc2)cc1-c1ccc(O)cc1` gave a melting point of 154 to 156 °C.
Compound `CN(C)C(=O)n1c(CN2CCN(c3ccccn3)CC2)nc2ccccc21` returned a melting point of 174 to 176 °C.
In the case of `CCCCCCCCCCCCCCCCCCN(C)S(=O)(=O)c1ccc(Cl)c([N+](=O)[O-])c1` it was 86 to 87 °C.
Next, `c1ccc(-n2c(Cc3ccccn3)nc3ccccc32)cc1`: 106 to 108 °C; `Cc1cn(-c2ccc3c(c2)c2ccccc2n3-c2ccccc2)c(-c2nc(C)cn2-c2ccc3c(c2)c2ccccc2n3-c2ccccc2)n1`: 245 to 253 °C; `CCCCCCCCCC(C)(C)c1cc(C(=O)Nc2ccc(C(=O)O)cc2)ccc1OC`: 177 °C.
In the case of `O=C(O)c1cc(NC(=O)C(CS)Cc2ccccc2)c[nH]1` (configuration not stated) it was 169 to 172 °C.
In turn, `CCN1c2ncc(Cc3cccc(F)c3)cc2C(=O)N(C)c2ccc(Cl)nc21` registered a melting point of 104 to 105 °C.
In turn, `O=S(=O)(O)CCNCCO` registered a melting point of 180 to 183 °C.
Next, `CCOC(C)n1c(C(=O)C(F)(F)F)nc(-c2ccc(OC)cc2)c1-c1ccc(OC)cc1` (configuration not stated): 124 to 126 °C; `Cc1c(NC(=O)CC(C)(C)C)c(C)c(C(C)(C)O)c2c1C(c1ccc(C(C)C)cc1)CO2` (configuration not stated): 133 to 134 °C.
Next, `CN(CCNc1ccnc2c(NC(=O)c3c(Cl)cccc3Cl)cccc12)C(=O)n1ccnc1`: 202 °C.
Next, `CC(C)c1ccc(-c2cn(-c3cccc(C(=O)O)c3)cn2)cc1`: 248 to 250 °C; `CN(C)N(C)C(=O)NC1c2ccccc2Oc2ccccc21`: 141 to 142 °C.
Compound `COC(=O)CCc1cc2cc(Cl)ccc2n1S(=O)(=O)c1cc(C)cc(C)c1` yielded a melting point of 146 to 150 °C.
In the case of `CCOC(=O)c1cc2cc([N+](=O)[O-])cc(CC)c2o1` it was 114 to 116 °C.
Next, `O=S(=O)(c1cccc(-c2cc(-c3nc(-c4ccc(C(F)(F)F)cc4)cc(C(F)(F)F)n3)ccn2)c1)N(CCO)CCO`: 186 °C; `Cc1nc2ccccc2c2c([N+](=O)[O-])cnn12`: 178 to 179 °C; `C1=C(c2c[nH]c3ccccc23)CCN(CCCOc2cccc3[nH]ccc23)C1`: 192 to 194 °C.
Next, `CCCCOCC(COCc1ccccc1)OCn1cnc2c(O)nc(NC(C)=O)nc21` (configuration not stated): 139 to 141 °C; `O=C1C(c2c[nH]c3ccccc23)=C(c2c[nH]c3ccccc23)C(=O)N1c1ccccc1`: greater than 290 °C.
`CN(C)C=C1C(=O)N(c2cccc(Cl)c2)c2ccccc21`: the melting point lay within 116 to 118 °C.
In the case of `COC(=O)CCC(=O)Nc1cccc(Oc2nc3ccccc3s2)c1` it was 78 to 82 °C; in that of `CCCCCCCCCCCCCCCCCCOCCSCCOC(=O)N(Cc1ccccn1)C(C)=O`, 47 to 49 °C; in that of `O=C1NC(Cc2ccc(OCc3ccccc3)cn2)C(=O)NC1Cc1ccccc1` (configuration not stated), 215 to 218 °C.
Next, `CC(C)(C)CC(=O)Nc1cc(NC(=O)C(C)(C)C)cc(NC(=O)C(C)(C)C)c1`: 368 °C; `CC(=O)NC(=Cc1ccc(OC(C)=O)cc1)C(=O)O`: 236 to 237 °C; `COC(=O)C=Cc1cnc(SC)nc1NCc1ccc(OC)c(Cl)c1`: 141 to 142 °C.
`CO[C@@H](Cc1ccc(OCCc2nc(-c3ccc(C(F)(F)F)cc3)oc2C)c2ccsc12)C(=O)O`: the melting point lay in the range of 173 to 175 °C.
Next, `CCOCCNC1CCCCC1Cc1ccc(-c2cccc(N)n2)cc1` (configuration not stated): 70 to 90 °C; `CCOC(=O)c1cc2c(OC[C@@H](O)CN3CCC(c4ccc5ccccc5c4)CC3)cccc2[nH]1`: 115 to 117 °C; `CS(=O)(=O)c1ccc(-c2cc(C(=O)CCCO[N+](=O)[O-])nn2-c2ccccc2)cc1`: 142 to 144 °C.
In the case of `CC(C)(O)C#Cc1c(F)c(F)c(-c2c(F)c(F)c(C#CC(C)(C)O)c(F)c2F)c(F)c1F`, the melting point was in the range of 119 to 121 °C.
In the case of `CCOC(=O)c1cc2ccccc2n1Cc1ccc(Cl)cc1` it was 107 to 108 °C.
Compound `CC(=O)Nc1ccccc1S(N)(=O)=O` yielded a melting point of 154 to 156 °C.
Next, `CC(C)(C)OC(=O)COC1=CC(=O)c2ccccc2C1=O`: 120 to 122 °C; `COc1ccc2c(n1)c(C=C[N+](=O)[O-])c1n2CCCO1`: 248 to 249 °C.
In the case of `CC(C)(C)OC(=O)N1CCC(n2c(=O)[nH]c3ccccc32)CC1` it was 161 to 163 °C; in that of `COc1cc(Nc2c(C#N)cnc3cc(C#CCCO)c(OC)cc23)c(Cl)cc1Cl`, 230 to 232 °C; in that of `CS(=O)(=O)N1CCCC(Nc2nccc(-n3nnc4ccccc43)n2)C1` (configuration not stated), 196 to 197 °C.
For the compound `COC(=O)C1COc2ccc(S)cc2C1` (configuration not stated), the melting point lay within 83 to 84 °C.
In the case of `COC(=O)c1ccccc1NC(=O)Cc1ccccc1OC` it was 116 to 117 °C; in that of `CNCC[C@H]1CC[C@H](C(=O)O)CC1`, 212 to 214 °C.
In the case of `COc1ccc(CCN(C)C(=O)/C=C/c2cccnc2)cc1OC` it was 84 to 86 °C; in that of `CCCCc1nc2c(N)nc3ccccc3c2n1CCCCO`, 184 to 186 °C.
In the case of `O=C(NC[C@@H]1CCNC[C@H]1O)c1cc(Cl)cc2c1OCCCO2` it was 114 °C; in that of `Cc1cnc(OCC2CN(C(C)(C)C)C(c3ccccc3)O2)c2cc(Cl)ccc12` (configuration not stated), 90 to 92 °C.
Compound `Cc1c(NC(=O)c2ccc(-c3ccc(F)cc3)cc2)ccc2cc(CN(C(C)C)C(C)C)cnc12` showed a melting point of 179 to 180 °C.
In the case of `CSc1ccc(N=Cc2ccc(F)cc2)cc1` it was 157 to 158 °C; in that of `O=S(=O)(Nc1c(Cl)ccc2cc(-c3ncc(CO)s3)[nH]c12)c1cccs1`, 197 to 199 °C.
`Cc1cccc(-c2n[nH]cc2-c2ccc(F)c(-c3ccc(S(C)(=O)=O)cc3)c2)n1` returned a melting point of 100 to 102 °C.
In the case of `CCNc1cccc(C#CCCn2nc3ccccc3n2)n1` it was 73 to 78 °C; in that of `Cc1cn(-c2cc(Br)c3c(c2)CCC(=O)N3)c(C)n1`, 242 °C.
Next, `CCCCCC1(C=Cc2ccc(C(=O)O)cc2)CC2=C(C1)C(C)(C)CCC2(C)C`: 121 to 123 °C.
Next, `Nc1nc2ccc(C(F)(F)C(F)(F)F)cc2s1`: 100 °C; `O=Cc1sc2ccccc2c1-c1ccccc1`: 86 to 89 °C.
`CN(C)c1ccc(CC(CS)C(=O)Nc2cccc(C(=O)O)c2)cc1` (configuration not stated) gave a melting point of 91 to 93 °C.
Next, `CCOC(=O)C1=C(C)NC(C)=C(C(=O)OCC)C1c1cccc2nonc12`: 153 to 155 °C; `CCCc1cc(CCCCC(=O)O)ccc1OC`: 84 °C.
Next, `CCC1c2cc(OC)c(OC)cc2C(c2ccc(OC)c(OC)c2)=NNC1C` (configuration not stated): 120 to 122 °C; `CCOC(=O)c1ccc(N=C(Nc2ccc(C(=O)OCC)cc2)c2ccc(-c3ccccc3)cc2)cc1`: 152 to 160 °C; `CN(C)C(=O)N1CC(Oc2ccc(C(F)(F)F)cc2Cl)C1`: 106 to 108 °C.
Next, `CC(C)n1nc(-c2c(-c3ccccc3)nc(N)nc2-n2ccnc2)ccc1=O`: 255 to 258 °C; `COCc1noc(-c2ncn3c2CN(C)C(=O)c2cc(F)ccc2-3)n1`: 192 to 194 °C.
Consider `COc1ccc(-c2cnccn2)cc1`, for which the melting point lay within 86 to 87 °C.
In the case of `CC(C)(C)OC(=O)NCCN(CCC12CC3CC(CC(C3)C1)C2)C(=O)NCCCc1ccncc1`, the melting point is 158 to 160 °C.
In the case of `CCCCCCCCCCCC(=O)N[C@@H](C)C(=O)N[C@H](CCC(=O)OCc1ccccc1)C(N)=O` it was 169 °C; in that of `CC(C)C[C@@H](O)CC(=O)O`, 86 °C; in that of `C#CCn1c(=O)oc2cc(Cl)c(-c3ccc(C(F)(F)F)n(C)c3=O)cc21`, 187 to 189 °C.
Consider `CCn1ncc2c1ncc1c(N)nc3cc(C)nn3c12`, for which the melting point was in the range of 248 to 250 °C.
In the case of `COc1cc2c(cc1O)C(O)CN(Cc1cc(OC)c(OC)c(OC)c1)C2` (configuration not stated) it was 62 to 63 °C.
Next, `COc1cc(Cc2cnc(N)nc2N)cc2c1OC(C)(C)C=C2c1ccccc1`: greater than 260 °C; `COc1ccc(-c2cc(=O)n(Cc3ccccc3)nc2-c2ccc(OC)c(F)c2)cc1F`: 114 to 115 °C.
Next, `Cc1noc2nc(-c3ccccc3)cc(Cl)c12`: 130 to 131 °C.
Consider `O=C1N(Cc2ccccn2)c2ccc(Br)cc2C12COc1cc3c(cc12)OCCO3` (configuration not stated), for which the melting point was greater than 250 °C.
In the case of `COC(=O)C(Cl)=Cc1cc(-n2ncc(C(F)(F)F)cc2=O)ccc1Cl` it was 140 to 141 °C.
In the case of `NC(Cc1ccccc1-c1ccc(C(=O)N2Cc3ccc(C(=O)NCc4cccnc4)n3Cc3ccccc32)cc1)=NO` it was 131 to 134 °C; in that of `COc1cc2c(cc1OC)CN(C(=O)Cc1ccc([N+](=O)[O-])cc1)CC2`, 110 to 111 °C; in that of `CCC(Oc1ccc(CCC(=O)c2ccc(-c3ccc(C(F)(F)F)cc3)s2)cc1)C(=O)O` (configuration not stated), 116 to 117 °C.
Next, `Nc1nc2c(ncn2OC(CO)CCOCP(=O)(O)O)c(=O)[nH]1` (configuration not stated): 188 to 192 °C.
Regarding `O=C(NC1CCCCC1)C12CC3CC(CC(C3)C1)C2`, the melting point fell in the range of 199 to 200 °C.
In the case of `COc1ccc(-n2nc(OC(C)C)cc2-c2ccc(OCCNS(C)(=O)=O)cc2)cn1` it was 121 to 122 °C.
`CC(C)(C)c1cc(C=O)c(O)cc1Cl` displayed a melting point of 38 to 39 °C.
Next, `CC(C)(C(=O)O)c1cc(C(F)(F)F)cc(C(F)(F)F)c1`: 106 to 107 °C; `CC(C)(C)c1cc(N(C(=O)CCCC(=O)O)c2ccccc2)cc(C(C)(C)C)c1O`: 168 to 170 °C.
Next, `CCOC(=O)c1ccsc1Nc1ccc(F)cc1[N+](=O)[O-]`: 125 °C; `CCc1nc(C(=O)c2ccc(Cl)cc2Cl)c(C(C)=O)n1C(CC)CC`: 63 to 64 °C.
